For data set [1], the system named is Cav3.2 channels. In words: Cav3.2 ubiquitination in cultured mouse DRG neurons (immunoprecipitation, anti-ubiquitin western blot). The format is cell-based. The following applies: 5 μM MG132 overnight. (In general: A western blot detects proteins with antibodies after separation by electrophoresis.)
Data set [2] has as its system Cav3.2 channels. In words: Ubiquitination state of Cav3.2 channels in CAD cells with proteasomal inhibitor (western blot densitometry). The format is cell-based. The following applies: 5 μM MG132, CAD cells, mean±SEM. The method, then: Human embryonic kidney tsA-201 cells were cultured as described previously (Altier et al., 2006). Cells were transfected with calcium phosphate and used for biochemical analysis 72 hrs post-transfection. Neuronal derived CAD cells were cultured as described previously (Altier et al., 2011). These cells were transfected with Lipofectamine 2000 (Invitrogen) and used for biochemical and electrophysiological experiments 48-72 hrs post-transfection. Both tsA-201 and CAD cells were preincubated with 5 μM MG132 (MG) or 100 μM Chloroquine (Chl) overnight.
Cells were lysed in RIPA buffer (in mM; 50 Tris, 100 NaCl, 1% triton X-100, 1% NP-40, 0.2% SDS, 0.1% NaDeoxycholate, 20 NaF, 10 Na4P2O7 pyrophosphate, 10 EDTA+protease inhibitor cocktail, pH 7.5). A modified RIPA buffer (in mM; 50 Tris, 100 NaCl, 0.2% (v/v) triton X-100, 0.2% (v/v) NP-40, 10 EDTA+protease inhibitor cocktail, with or without 5 μM MG132 pH 7.5) was used to co-immunoprecipitate Cav3.2 channels with USP5 protein. Lysates from tsA-201, CAD cells and rat brain tissue were prepared by sonicating samples at 60% pulse for 10 seconds and by centrifugation at 13,000 rpm for 15 minutes at 4° C. […] Western blot quantification was performed using densitometry analysis (Quantity One-BioRad software). […]

Data set [3] deals with CFA-injected mice. As to the kind of experiment: CFA-induced persistent inflammatory pain, mechanical hyperalgesia. The following applies: acute delivery, 10.0 μg/i.t.
Description: Mechanical hyperalgesia was measured using the digital plantar aesthesiometer (DPA, UgoBasile, Varese, Italy). […] Mice were allowed to acclimate for a period of at least 90 minutes. The DPA device was positioned beneath the animal, so that the filament was directly under the plantar surface of the ipsilateral hind paw. Each paw was tested three times per session.
The conditions of data set [4]: 10.0 μg/i.t.
Excerpt: Injections were given to fully conscious mice using the method described by Hylden and Wilcox (Hylden & Wilcox, 1980). Animals were manually restrained, the dorsal fur of each mouse was shaved, the spinal column was arched, and a 30-gauge needle attached in a PE20 Polyethylene tube to a 25-μl Hamilton microsyringe (Hamilton, Birmingham, UK) was inserted into the subdural space between the L4 and L5 vertebrae. Correct i.t. positioning of the needle tip was confirmed by a characteristic tail-flick response of animal. Intrathecal injections of volumes between 2-10 μl were given over a period between 5-10 seconds.

Data on three compounds can be found in patent publication US9993522B2, “Treatment of pain by inhibition of USP5 de-ubiquitinase” (UTI LIMITED PARTNERSHIP, priority 2012, dated 2018).

Residues, ends and D or L forms follow the SMILES beside them. *: point of attachment. Cbz = O=C(OCc1ccccc1)*

For the compound `CC(C)C[C@@H](C=O)NC(=O)[C@H](CC(C)C)NC(=O)[C@H](CC(C)C)NC(=O)OCc1ccccc1` [MG132] (Cbz-Leu-Leu-Leu-aldehyde), in data set [1], the Cav3.2 ubiquitination signal result was “only from immunoprecipitates from cells treated with 5 μM MG132”. Besides, the “ratio of ubiquitinated vs non-ubiquitinated channels (Ub-Cav3.2 channels/Cav3.2 channels), higher MW band (b)” value in data set [2] (n=4) is reported as 2.80±0.5. The “ratio of ubiquitinated vs non-ubiquitinated channels (Ub-Cav3.2 channels/Cav3.2 channels), lower MW band (a)” value in data set [2] (n=5) worked out at 3.2±1.1.

As to `COCC(=O)O[C@]1(CCN(C)CCCc2nc3ccccc3[nH]2)CCc2cc(F)ccc2[C@@H]1C(C)C` [mibefradil], in data set [3], the “pain in the CFA model (mechanical withdrawal threshold)” value is “significantly attenuate pain in the CFA model”.

Regarding `CC(C)C[C@H](NC(=O)[C@H](CCCNC(=N)N)NC(=O)[C@H](CCCNC(=N)N)NC(=O)[C@H](CC(C)C)NC(=O)[C@H](CCCNC(=N)N)NC(=O)[C@H](CCCCN)NC(=O)[C@H](CCC(=O)O)NC(=O)[C@H](CCC(=O)O)NC(=O)[C@H](CCCNC(=N)N)NC(=O)[C@H](CCCNC(=N)N)NC(=O)[C@H](CCCNC(=N)N)NC(=O)[C@H](C)NC(=O)[C@H](CCC(=O)O)NC(=O)[C@H](CCCNC(=N)N)NC(=O)[C@H](CCCNC(=N)N)NC(=O)[C@H](CCCNC(=N)N)NC(=O)[C@H](CCC(N)=O)NC(=O)[C@H](CCCNC(=N)N)NC(=O)[C@H](CCCNC(=N)N)NC(=O)[C@H](CCCCN)NC(=O)[C@H](CCCCN)NC(=O)[C@H](CCCNC(=N)N)NC(=O)CNC(=O)[C@@H](N)Cc1ccc(O)cc1)C(=O)N[C@@H](CCC(=O)O)C(=O)N[C@@H](CCCNC(=N)N)C(=O)N[C@@H](CCCNC(=N)N)C(=O)N[C@@H](CCCNC(=N)N)C(=O)N[C@@H](CCCNC(=N)N)C(=O)N[C@@H](CCCCN)C(=O)N[C@@H](C)C(=O)N[C@@H](CCC(N)=O)C(=O)O` [Tat-3.2-III-IV linker peptide] (H-YGRKKRRQRRREARRREEKRLRRLERRRRKAQ-OH), the abnormal behavior entry in data set [4] (2.5 μg/μl over 10 seconds) is recorded as “no abnormal behavior was observed”. In data set [4] (5 μg/μl over 5 seconds), the “mice that developed shaking behavior” value was 3 out of 10 and the “time to termination of shaking behavior after injection” value was at most 15 min.
